The source of these data is patent US20250381157A1, “ANTIMICROBIAL COMPOUNDS” (priority 2022, published 2025).

Data set [1] concerns E. coli. In words: E. coli mouse infection model. The following applies: for translocation of bacteria to liver and spleen: oral, CFU in liver. Format: in vivo. As for the experimental part: FIG. 1: E. coli mouse infection model. CFU measured in tissue: colon, ileum, liver, spleen. Statistical analysis was performed by comparing all conditions to the vehicle-treated group and using one-way ANOVA with Dunnett post-hoc test, *** p<0.001, **** p<0.0001, ns non-significant.
Compound 1 was administered orally to a mouse model of E. coli infection at 25 mg/kg, 73.5 mk/kg and 50 mg/kg. Compound 1 achieved the study goal of lowering Colony Unit Forming count in colon tissue by a factor of 3 log10 compared to vehicle treated animals.
• Infecting mice through oral administration of a vancomycin resistant pathogenic strain of E. coli simplified the process of determining the mechanism(s) by which compound 1 exerts its effects on the pathogenic process. […] This is evidenced by the fact that there still are viable vancomycin resistant E. coli present in the colon and ileum at the conclusion of the experiment (FIG. 1). […] It is therefore unlikely that compound 1 is inhibiting E. coli translocation to these organs solely due to its ability to stimulate production of antibacterial peptides. […] That experiment was performed in the presence of cyclophosphamide, which is known to cause febrile neutropenia due to translocation of bacteria to vital organs. […] First is the ability of the compound 1 to attenuate the growth of bacteria and secondly is its ability to inhibit the bacterial translocation.

Data set [2] addresses T1, recombinant human HDAC7 (Homo sapiens, UniProt Q8WUI4).
T1 construct: purchased BPS 50007
T1 sequence (Q8WUI4 1-952): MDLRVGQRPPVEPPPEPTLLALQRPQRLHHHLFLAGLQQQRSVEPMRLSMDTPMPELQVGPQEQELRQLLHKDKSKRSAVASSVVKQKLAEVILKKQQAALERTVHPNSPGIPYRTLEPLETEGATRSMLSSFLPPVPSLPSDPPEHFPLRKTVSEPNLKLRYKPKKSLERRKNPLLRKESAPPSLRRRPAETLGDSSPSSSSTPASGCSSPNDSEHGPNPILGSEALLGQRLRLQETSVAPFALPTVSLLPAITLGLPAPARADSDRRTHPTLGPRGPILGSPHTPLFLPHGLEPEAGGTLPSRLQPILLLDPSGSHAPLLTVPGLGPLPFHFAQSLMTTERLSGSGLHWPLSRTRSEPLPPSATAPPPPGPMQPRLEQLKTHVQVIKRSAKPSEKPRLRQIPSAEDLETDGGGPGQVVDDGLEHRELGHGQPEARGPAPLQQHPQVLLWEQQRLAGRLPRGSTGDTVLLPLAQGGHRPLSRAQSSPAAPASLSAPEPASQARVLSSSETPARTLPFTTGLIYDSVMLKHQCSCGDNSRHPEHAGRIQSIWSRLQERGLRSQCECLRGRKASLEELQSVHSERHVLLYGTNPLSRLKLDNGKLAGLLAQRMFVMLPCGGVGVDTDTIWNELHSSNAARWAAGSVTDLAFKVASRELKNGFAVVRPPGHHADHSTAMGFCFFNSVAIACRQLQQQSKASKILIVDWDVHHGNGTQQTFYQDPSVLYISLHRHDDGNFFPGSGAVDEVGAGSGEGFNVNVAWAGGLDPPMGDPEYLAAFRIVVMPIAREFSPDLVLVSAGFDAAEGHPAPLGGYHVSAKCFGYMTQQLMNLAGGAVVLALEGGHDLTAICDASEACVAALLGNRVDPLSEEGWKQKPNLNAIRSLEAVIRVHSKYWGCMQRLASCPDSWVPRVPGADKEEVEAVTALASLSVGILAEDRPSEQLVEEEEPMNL
In words: HDAC7 in-vitro enzymatic assay. Format: biochemical. As for the experimental part: (§1) All of the compounds were dissolved in DMSO. A series of dilutions of the compounds were prepared with 10% DMSO in HDAC assay buffer and 5 μl of the dilution was added to a 50 μl reaction so that the final concentration of DMSO was 1% in all of reactions. The compounds were pre-incubated in duplicate at RT for 30 minutes in a mixture containing HDAC assay buffer, 5 μg BSA, HDAC enzyme and a test compound. After 30 minutes, the enzymatic reactions were initiated by the addition of HDAC substrate to a final concentration of 20 μM or 2 μM. The enzymatic reaction proceeded for 30 minutes at 37° C. After enzymatic reactions, 50 μl of 2×HDAC Developer was added to each well for the HDAC enzymes and the plate was incubated at room temperature for an additional 15 minutes. Fluorescence intensity was measured at an excitation of 360 nm and an emission of 460 nm using a Tecan Infinite M1000 microplate reader.
(§2) HDAC activity assays were performed in duplicates at each concentration. The fluorescent intensity data were analyzed using the computer software, Graphpad Prism. […] The percent activity in the presence of each compound was calculated according to the following equation: % activity=(F−Fb)/(Ft−Fb), where F=the fluorescent intensity in the presence of the compound. […] The IC50 value was determined by the concentration causing a half-maximal percent activity.

Data set [3] has as its target T2, recombinant human HDAC8 (Homo sapiens, UniProt Q9BY41).
T2 construct: purchased BPS 50008
T2 sequence (Q9BY41 1-377): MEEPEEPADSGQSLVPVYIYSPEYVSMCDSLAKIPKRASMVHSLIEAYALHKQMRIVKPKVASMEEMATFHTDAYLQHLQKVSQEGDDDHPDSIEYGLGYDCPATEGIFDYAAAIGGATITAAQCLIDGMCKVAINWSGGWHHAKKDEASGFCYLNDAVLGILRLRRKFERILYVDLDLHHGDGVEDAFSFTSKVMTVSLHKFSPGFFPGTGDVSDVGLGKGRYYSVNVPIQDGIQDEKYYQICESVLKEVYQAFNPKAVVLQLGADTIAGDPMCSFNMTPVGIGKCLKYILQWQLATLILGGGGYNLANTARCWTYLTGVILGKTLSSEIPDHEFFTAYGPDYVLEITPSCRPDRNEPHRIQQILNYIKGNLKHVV
In words: HDAC8 in-vitro enzymatic assay. Type of data set: biochemical. The method, then:
as §1, §2

Data set [4] can be described thus: Plasma stability Mouse. Type of data set: in vitro ADME.
The target in data set [5] is T3, recombinant human HDAC3 (Homo sapiens, UniProt O15379).
T3 construct: purchased BPS 50003
T3 sequence (O15379 whole entry): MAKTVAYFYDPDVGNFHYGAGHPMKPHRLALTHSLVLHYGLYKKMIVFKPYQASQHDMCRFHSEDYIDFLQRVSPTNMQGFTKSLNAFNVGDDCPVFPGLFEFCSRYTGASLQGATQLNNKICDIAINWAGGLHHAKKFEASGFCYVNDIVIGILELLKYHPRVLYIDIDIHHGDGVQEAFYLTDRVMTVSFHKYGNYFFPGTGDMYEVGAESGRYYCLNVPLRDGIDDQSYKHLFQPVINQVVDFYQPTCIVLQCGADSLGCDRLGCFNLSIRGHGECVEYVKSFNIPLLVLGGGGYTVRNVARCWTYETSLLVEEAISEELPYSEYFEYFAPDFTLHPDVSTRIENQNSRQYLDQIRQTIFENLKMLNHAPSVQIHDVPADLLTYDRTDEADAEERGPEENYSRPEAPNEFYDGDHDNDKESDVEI
T3 sequence (Q9Y618 395-489 partner limits assumed): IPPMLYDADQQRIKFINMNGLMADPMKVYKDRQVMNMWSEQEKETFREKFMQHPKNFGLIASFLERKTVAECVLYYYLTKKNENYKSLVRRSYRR
In words: HDAC3 in-vitro enzymatic assay. Type of data set: biochemical. The method, then: as §1, §2

Some results are limits rather than exact numbers.

The IC50 is the concentration that inhibits the measured activity by half. `C#CCOCC(=O)Nc1ccc(C(=O)Nc2ccccc2N)cc1` [Compound 1, N-(2-aminophenyl)-4-{2-[(prop-2-yn-1-yl)oxy]acetamido}benzamide]: the “dose dependence of attenuation of E. coli growth in the colon and ileum” value in data set [1] (FIG. 1) was “shows dose dependence”. The “dose dependence of inhibition of vancomycin resistant E. coli translocation to the liver and spleen” value in data set [1] (FIG. 1) is on record as “not compound 1 dose dependent”. Also, in data set [1] (administered orally at 25 mg/kg, 73.5 mk/kg and 50 mg/kg), the “lowering Colony Unit Forming count in colon tissue compared to vehicle treated animals” value is 3 log10. In data set [1] (colon and ileum, conclusion of the experiment), the “E. coli burden in the intestines reduced compared to control” value was around 3 logs. In addition, the “translocation of bacteria to liver and spleen” value was “completely knocking out translocation” in data set [1] and “totally inhibiting its translocation” in data set [1] (listed as compound 1). The concentration for half-maximal inhibition (IC50) in data set [2] was above 200 µM; in data set [3], above 200 µM; in data set [5], at most 1 µM. In addition, the “Inhib. HDAC7” value in data set [2] (@ 200 μM) is listed as “No Inhib. @ 200 μM”. Also, the inhibition at 200 µM in data set [3] (@ 200 μM, read-out: Inhib. HDAC8) turned out to be 42%. Further, in data set [4], the “Plasma stability Mouse” value was “Low”. Also, the inhibition at 1 µM in data set [5] (@ 1 μM, read-out: Inhib. HDAC3) was found to be 61%.
